{
  "source": "patent US9932314B2",
  "about": "“Pyrazole compounds and their use as T-type calcium channel blockers” (IDORSIA PHARMACEUTICALS LTD, priority 2015, dated 2018)",
  "data": [
    {"target": "T1, voltage-dependent T-type calcium channel subunit alpha-1G (Cav3.2) (Homo sapiens, UniProt O95180)", "T1 construct": "expressed in transfected cells; host or cells: HEK293", "T1 sequence (O95180 whole entry)": "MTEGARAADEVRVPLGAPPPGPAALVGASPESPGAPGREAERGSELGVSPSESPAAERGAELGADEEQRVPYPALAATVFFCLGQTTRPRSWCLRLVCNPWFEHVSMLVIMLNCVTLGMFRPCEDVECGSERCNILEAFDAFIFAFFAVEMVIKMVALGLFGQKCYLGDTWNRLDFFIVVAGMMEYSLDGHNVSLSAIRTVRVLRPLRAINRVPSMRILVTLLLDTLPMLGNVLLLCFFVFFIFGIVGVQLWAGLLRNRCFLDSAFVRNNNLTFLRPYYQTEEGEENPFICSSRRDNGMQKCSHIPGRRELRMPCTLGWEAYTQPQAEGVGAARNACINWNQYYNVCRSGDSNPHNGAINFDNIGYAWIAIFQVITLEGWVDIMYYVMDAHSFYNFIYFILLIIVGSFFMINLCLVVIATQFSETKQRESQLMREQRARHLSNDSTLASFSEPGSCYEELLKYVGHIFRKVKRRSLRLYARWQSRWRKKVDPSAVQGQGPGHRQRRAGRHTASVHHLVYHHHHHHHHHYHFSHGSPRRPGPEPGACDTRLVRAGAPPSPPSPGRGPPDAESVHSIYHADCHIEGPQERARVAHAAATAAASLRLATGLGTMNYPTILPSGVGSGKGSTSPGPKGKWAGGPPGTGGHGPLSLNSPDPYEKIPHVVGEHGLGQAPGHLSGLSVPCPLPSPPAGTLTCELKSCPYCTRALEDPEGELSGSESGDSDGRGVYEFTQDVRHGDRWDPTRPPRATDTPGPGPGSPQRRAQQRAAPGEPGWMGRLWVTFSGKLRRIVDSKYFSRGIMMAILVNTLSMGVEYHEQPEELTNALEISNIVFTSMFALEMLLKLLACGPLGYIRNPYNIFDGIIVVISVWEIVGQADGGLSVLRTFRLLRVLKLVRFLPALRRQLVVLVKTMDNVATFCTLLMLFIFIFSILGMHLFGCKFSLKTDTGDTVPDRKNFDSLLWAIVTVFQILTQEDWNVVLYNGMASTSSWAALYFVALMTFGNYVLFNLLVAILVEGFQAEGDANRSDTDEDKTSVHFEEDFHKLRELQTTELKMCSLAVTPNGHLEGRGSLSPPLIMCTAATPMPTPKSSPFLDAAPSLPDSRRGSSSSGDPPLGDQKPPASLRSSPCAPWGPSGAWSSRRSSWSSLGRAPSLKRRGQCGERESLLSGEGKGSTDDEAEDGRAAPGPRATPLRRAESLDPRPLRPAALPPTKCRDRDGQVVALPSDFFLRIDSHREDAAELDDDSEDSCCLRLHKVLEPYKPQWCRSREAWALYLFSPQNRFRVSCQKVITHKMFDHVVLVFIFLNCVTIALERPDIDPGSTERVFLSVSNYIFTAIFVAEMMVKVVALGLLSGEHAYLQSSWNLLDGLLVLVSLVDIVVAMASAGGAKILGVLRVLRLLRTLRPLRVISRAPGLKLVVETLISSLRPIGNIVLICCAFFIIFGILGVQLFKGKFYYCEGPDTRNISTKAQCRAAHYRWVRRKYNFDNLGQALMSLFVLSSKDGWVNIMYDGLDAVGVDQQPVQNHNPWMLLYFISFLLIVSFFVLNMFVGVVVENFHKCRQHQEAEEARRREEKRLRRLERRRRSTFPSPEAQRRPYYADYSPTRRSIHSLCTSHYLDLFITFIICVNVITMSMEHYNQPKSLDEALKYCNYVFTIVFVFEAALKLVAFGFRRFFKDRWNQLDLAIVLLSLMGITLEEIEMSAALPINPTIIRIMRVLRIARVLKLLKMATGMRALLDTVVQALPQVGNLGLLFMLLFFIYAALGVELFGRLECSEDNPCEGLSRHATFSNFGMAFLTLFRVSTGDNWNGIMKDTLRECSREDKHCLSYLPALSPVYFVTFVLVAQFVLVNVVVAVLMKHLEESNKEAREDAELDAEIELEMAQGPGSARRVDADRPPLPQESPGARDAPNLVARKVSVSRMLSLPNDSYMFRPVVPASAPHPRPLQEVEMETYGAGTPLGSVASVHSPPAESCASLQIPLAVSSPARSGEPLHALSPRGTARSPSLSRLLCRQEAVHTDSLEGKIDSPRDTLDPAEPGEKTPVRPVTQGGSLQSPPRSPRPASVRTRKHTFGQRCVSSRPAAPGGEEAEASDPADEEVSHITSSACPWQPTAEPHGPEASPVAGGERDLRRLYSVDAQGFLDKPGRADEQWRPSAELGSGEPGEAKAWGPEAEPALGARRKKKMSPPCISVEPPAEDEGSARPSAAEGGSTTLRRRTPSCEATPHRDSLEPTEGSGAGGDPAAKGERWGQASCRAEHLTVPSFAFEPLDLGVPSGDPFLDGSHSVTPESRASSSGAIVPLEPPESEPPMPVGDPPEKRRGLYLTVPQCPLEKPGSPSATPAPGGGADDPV", "experiment": "FLIPR calcium flux assay, HEK293 cells recombinantly expressing Cav3.2", "assay_type": "cell-based", "conditions": "Cav3.2-channel, Fluo-4-AM, 3 min incubation, stimulation with 10 mM CaCl2", "summary_of_the_method": "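Calcium influx was triggered by adding CaCl2 to 10 mM final, 3 min after compounds in tetraethylammonium-based buffer, pH 7.2, reached Fluo-4-AM-loaded recombinant HEK293 cells. The integrated kinetic fluorescence signal per concentration gave concentration-response curves by non-linear sigmoidal regression.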", "units": {"IC50": "nM"}, "values": [
      {"smiles": "CN(C)c1ccc(CC(=O)Nc2ccn(Cc3ccc(OC(F)(F)F)cc3)n2)cn1", "note": "[Example 37, 2-(6-Dimethylamino-pyridin-3-yl)-N-[1-(4-trifluoromethoxy-benzyl)-1H-pyrazol-3-yl]-acetamide]", "IC50": 29},
      {"smiles": "O=C(Cc1ccc(N2CCC(F)(F)C2)nc1)Nc1ccn(Cc2ccc(F)cc2)n1", "note": "[Example 122, 2-[6-(3,3-Difluoro-pyrrolidin-1-yl)-pyridin-3-yl]-N-[1-(4-fluoro-benzyl)-1H-pyrazol-3-yl]-acetamide]", "IC50": 19},
      {"smiles": "N#Cc1ccc(Cn2ccc(NC(=O)Cc3ccc(N4CCC(F)(F)C4)nc3)n2)nc1", "note": "[Example 119, N-[1-(5-Cyano-pyridin-2-ylmethyl)-1H-pyrazol-3-yl]-2-[6-(3,3-difluoro-pyrrolidin-1-yl)-pyridin-3-yl]-acetamide]", "IC50": 137},
      {"smiles": "CC1(COc2ccc(CC(=O)Nc3ccn(Cc4cc(F)c(C#N)c(F)c4)n3)cc2)CC(F)(F)C1", "note": "[Example 364, N-[1-(4-Cyano-3,5-difluoro-benzyl)-1H-pyrazol-3-yl]-2-[4-(3,3-difluoro-1-methyl-cyclobutylmethoxy)-phenyl]-acetamide]", "IC50": 62},
      {"smiles": "CC(C)Cc1nc(Cn2ccc(NC(=O)Cc3ccc(C(C)C)cc3)n2)ccc1C#N", "note": "[Example 134, N-[1-(5-Cyano-6-isobutyl-pyridin-2-ylmethyl)-1H-pyrazol-3-yl]-2-(4-isopropyl-phenyl)-acetamide]", "IC50": 428},
      {"smiles": "N#Cc1ccc(Cn2ccc(NC(=O)Cc3ccc(N4CC[C@@H](F)C4)cc3)n2)nc1", "note": "[Example 89, N-[1-(5-Cyano-pyridin-2-ylmethyl)-1H-pyrazol-3-yl]-2-[4-((R)-3-fluoro-pyrrolidin-1-yl)-phenyl]-acetamide]", "IC50": 61},
      {"smiles": "O=C(Cc1ccc(N2CC(F)C2)cc1)Nc1ccn(Cc2ccc(F)cc2)n1", "note": "[Example 73, 2-[4-(3-Fluoro-azetidin-1-yl)-phenyl]-N-[1-(4-fluoro-benzyl)-1H-pyrazol-3-yl]-acetamide]", "IC50": 7.9},
      {"smiles": "Cn1ccc2ccc(CC(=O)Nc3ccn(Cc4ccc(F)c(F)c4)n3)cc21", "note": "[Example 221, N-[1-(3,4-Difluoro-benzyl)-1H-pyrazol-3-yl]-2-(1-methyl-1H-indol-6-yl)-acetamide]", "IC50": 5},
      {"smiles": "CC(C)(C#N)c1ccc(CC(=O)Nc2ccn(Cc3ccc(F)c(C#N)c3)n2)cc1", "note": "[Example 335, 2-[4-(Cyano-dimethyl-methyl)-phenyl]-N-[1-(3-cyano-4-fluoro-benzyl)-1H-pyrazol-3-yl]-acetamide]", "IC50": 20},
      {"smiles": "COCCN(C)c1ccc(CC(=O)Nc2ccn(Cc3ccc(F)cc3)n2)cn1", "note": "[Example 182, N-[1-(4-Fluoro-benzyl)-1H-pyrazol-3-yl]-2-{6-[(2-methoxy-ethyl)-methyl-amino]-pyridin-3-yl}-acetamide]", "IC50": 65},
      {"smiles": "CC(C)(c1ccc(CC(=O)Nc2ccn(Cc3ccc(C#N)cn3)n2)cc1)C(F)(F)F", "note": "[Example 376, N-[1-(5-Cyano-pyridin-2-ylmethyl)-1H-pyrazol-3-yl]-2-[4-(2,2,2-trifluoro-1,1-dimethyl-ethyl)-phenyl]-acetamide]", "IC50": 20},
      {"smiles": "COc1ccc(Cn2ccc(NC(=O)Cc3ccc(OC4CCC4)cc3)n2)cc1", "note": "[Example 199, 2-(4-Cyclobutoxy-phenyl)-N-[1-(4-methoxy-benzyl)-1H-pyrazol-3-yl]-acetamide]", "IC50": 74},
      {"smiles": "N#Cc1ccc(Cn2ccc(NC(=O)Cc3ccc(OC4COC4)cc3)n2)cc1", "note": "[Example 251, N-[1-(4-Cyano-benzyl)-1H-pyrazol-3-yl]-2-[4-(oxetan-3-yloxy)-phenyl]-acetamide]", "IC50": 303},
      {"smiles": "Cc1cn(C)c2ncc(CC(=O)Nc3ccn(Cc4ccc(C#N)cn4)n3)cc12", "note": "[Example 322, N-[1-(5-Cyano-pyridin-2-ylmethyl)-1H-pyrazol-3-yl]-2-(1,3-dimethyl-1H-pyrrolo[2,3-b]pyridin-5-yl)-acetamide]", "IC50": 856},
      {"smiles": "CN(C)c1ccc(CC(=O)Nc2ccn(Cc3ccc(OC(F)F)cc3)n2)cn1", "note": "[Example 36, N-[1-(4-Difluoromethoxy-benzyl)-1H-pyrazol-3-yl]-2-(6-dimethylamino-pyridin-3-yl)-acetamide]", "IC50": 160}
    ]}
  ]
}
